Data from patent US20250041476A1, “ENHANCED PERFORMANCE SOLUTION FOR TISSUE GRAFTS” (The Curators of the University of Missouri, priority 2020, published 2025).

Assays:
integrin β1 = settings: chondrocytes; cited from earlier work
[1] = Modulated differential scanning calorimetry of tissue scaffolds; assay type: physicochemical
Experimental: Following crosslinking, five specimens (n=5) from the 7 treatment types were rinsed in DI water and placed in an aluminum pan with a hermetic lid. The treatment types were EDC/NHS, untreated, 15 minutes crosslinking with 3 mM genipin, 4 hours crosslinking with 3 mM genipin, 8 hours crosslinking with 3 mM genipin, 24 hours crosslinking with 3 mM genipin, and 24 hours crosslinking with 10 mM genipin. The 10 mM treatment type was added to verify that increasing the genipin concentration would further increase the amount of crosslinking that occurred. The reference pan consisted of an aluminum pan containing […] of double distilled water and sealed with a hermetic lid. Each specimen was then subjected to modulated differential scanning calorimetry using a Q2000 DSC (TA Instruments, New Castle, DE, USA) to raise the temperature from 5° C. to 120° C. at a rate of 5° C. per minute with a modulation of ±0.64° C. every 80 s. The mean denaturation temperature is reported.

[2] = test system: L929 mouse connective tissue fibroblasts; test: Cell proliferation reagent WST-1 cell viability assay on scaffolds; assay type: cell-based; settings: scaffolds crosslinked with 3 mM genipin
Experimental: L-929 mouse fibroblast cells were obtained from ATCC (Manassas, VA). They were cultured in EMEM (ATCC, Manassas, VA, USA) supplemented with 10% (v/v) horse serum (Sigma-Aldrich, St. Louis, MO, USA) and 200 U mL^−1 penicillin-streptomycin (Sigma-Aldrich, St. Louis, MO, USA) solution in an incubator at 37° C. and 5% CO2. 1 mL of 3×10^4 cell/mL cell solution was plated on each scaffold and allowed to grow for 1, 3, 7, or 10 days with fresh media being replaced every […].
Cell proliferation reagent WST-1 (Roche Diagnostics Corporation, Indianapolis, IN, USA) was used to evaluate the biocompatibility of the scaffolds. The WST-1 assay works via the use of tetrazolium salts. The salts were added to wells containing cells and the tissue discs. The tetrazolium salts were then cleaved to formazan by mitochondrial dehydrogenase activity. This correlates to the number of metabolically active cells. The resulting formazan was quantified using UV-vis absorbance measurements. […] After gentle mixing, 100 μL was removed from each well and absorbance readings were acquired using a Tecan Safire II plate reader. The resulting values were then calculated relative to the absorbance found on the untreated control scaffold. […]

COC(=O)C1=CO[C@@H](O)[C@@H]2C(CO)=CC[C@H]12 [genipin, methyl (1S,2R,6S)-2-hydroxy-9-(hydroxymethyl)-3-oxabicyclo[4.3.0]nona-4,8-diene-5-carboxylate]
mRNA expression of integrin β1 (integrin β1): halved
Denaturation temperature of tissue scaffold ([1]; 15 minutes of genipin crosslinking, 3 mM, vs untreated): significantly increases
Denaturation temperature of tissue scaffold ([1]; 24 hours of crosslinking, 3 mM genipin): significant increase
Denaturation temperature of tissue scaffold ([1]; higher genipin concentration (10 mM vs 3 mM), 24 hours): significantly increased
Cytotoxicity (biocompatibility results) [2]: not cytotoxic
